Results: patent publication US10287581B2, “Cell penetrating peptides for intracellular delivery of molecules” (AADIGEN, LLC, priority 2011, dated 2019)

Key:
[1] = system: PC3 xenografted tumors; assay: Tumour growth in PC3-xenografted mice, cyclin B1 siRNA; type: in vivo
Description: FIGS. 11A-11D: NANOPEP-6 Cyclin B1 siRNA delivery upon topical and systemic injection. Athymic female nude mice were subcutaneously inoculated into the flank with 1×10^6 PC3 (11A and 11B) or HT29 (11C and 11D). Two to three weeks after tumour implant, when tumour size reached about 100 mm^3, animals were treated by intratumoral (11A and 11C) injections, every 3 days, with a solution either saline buffer solution (closed triangle), free Cyc-B1 siRNA (open triangle), control siRNA Cyc-B3 (closed box) or Cyc-B1 siRNA at 5 μg (open circle) and 10 μg (closed circle) complexed with NANOPEP-6 at a 1/20 molar ratio. […] Tumour diameter was measured in two directions at regular intervals using a digital calliper and tumour volume was calculated as length×width×height×0.52. […]
Tumour diameter was measured in two directions at regular intervals using a digital calliper and tumour volume was calculated as length×width×height×0.52. […] The statistical significance of the results was calculated by Student's t test and p<0.05 considered to be statistically significant. […]
The potential of NANOPEP-6 (VEPEP6/VEPEP6) to deliver cyclin B1 siRNA in vivo was first evaluated on human prostate carcinoma cell PC3-xenografted mice (FIG. 11A). The effect of local intratumoral administration of NANOPEP-6/siRNA particles (molar ratio 20/1) on the growth of established subcutaneous tumours was evaluated. […]

[2] = system: cyclin B1; assay: Cyclin B1 silencing at protein (Western blotting) and mRNA (Quantigen) level; type: cell-based, Human; conditions: 200 nM siRNA complexed with VEPEP-6 at a 1/20 ratio
Description: FIGS. 6A-6C: VEPEP-6 dose response of Cyclin B1 silencing at the protein and mRNA levels on Hela (6A) and HS68 (6B) cells. Stock solution of VEPEP-6/siRNA ([…]) particles were prepared at a molar ratio of 1/20 (siRNA/VEPEP-6), and lower concentrations (from 200 nM to 0.125 nM) were obtained by serial dilution of the stock solution in PBS. HeLa (Panel A) and HS-68 (Panel B) cells (60% confluency) were overlaid with preformed complexes for 30 min, then fresh DMEM supplemented with 10% FCS was added directly to the cells, which were then returned to the incubator for 24 hrs. Cyclin B1 protein levels were determined by Western Blotting using Cdk2 as a control for quantification (white bars). Cyclin B1 mRNA levels were measured 12 hrs after transfection using Quantigen technology (black bars). Mismatched Cyc-B3 siRNA associated with VEPEP-6 (200 nM) and empty VEPEP-6 particles (20 μM) were used as a control. 6C: Dose-response of G2-arrest associated with Cyclin B1 silencing. HeLa (black bars) and HS68 (white bars) cells were treated with increasing concentrations of VEPEP-6/siRNA-Cyc-B1 from 0.25 nM to 20 nM. The cell cycle status was evaluated by FACS analysis. […]
Cyclin B1 mRNA and protein levels were determined 12 and 24 hrs following transduction, using Quantigen (Panomics Inc.) and Western blotting, respectively. […]

Substance | effect on tumour growth ([1]; controls: naked siRNA 100 (intratumoral or intravenous), carrier alone) | inhibition of tumour growth ([1]; complexed with NANOPEP-6, 0.5 mg/kg) | effect on cyclin B1 levels and cell cycle progression [2]
naked siRNA: Cyc-B1 siRNA without carrier, SEQ ID No: 17/18 (chain 1 GGCGAAGAUCAACAUGGCATT; chain 2 UGCCAUGUUGAUCUUCGCCTT; chemistry not given here) | no significant effect | – | –
Cyc-B3: cyclin B1 siRNA harbouring two mismatches, control, SEQ ID No: 19/20 (chain 1 GGUGAAGAUCAGCAUGGCATT; chain 2 UGCCAUGUCGAUCUUCACCTT; chemistry not given here) | – | unable to inhibit tumour growth | no effect
